According to patent US10760110B2, “Antibiotic testing and screening system” (priority 2017, dated 2020):
Values after ≈ are worked out from the molar mass of the structure shown. Read-outs that look alike come from different tables or passages of the source.

Key:
Conditions in all cases: Klebsiella pneumoniae
[1] = test system: K. pneumoniae NVT1001 ΔramRΔompK35/36 mutant and its revertants; assay: Etest MIC, ΔramRΔompK35/36 mutant and its revertants (Table 7); format: cell-based
[2] = test system: K. pneumoniae NVT1001 strains with carbapenemase plasmids; assay: Etest MIC of β-lactams, OmpK35/36 loss, ΔramR and/or carbapenemase (Table 9); format: cell-based, Klebsiella pneumoniae
Procedure, shortened: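 Etest MICs, with values between standard dilutions rounded up to the next two-fold step, were measured in K. pneumoniae NVT1001 carrying PCR-cloned resistance genes on pACYC177 or pACYC184 plasmids. Interpretation used CLSI 2017 breakpoints, CLSI 2015 for cephalothin and EUCAST 2017 for moxifloxacin. For the blaOXA-48 strain, ceftazidime and cefotaxime were additionally tested by CLSI broth microdilution.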

[3] = test system: K. pneumoniae NVT1001 and its ΔompK35/36 and/or ΔramR mutants; assay: Etest MIC, OmpK35/36 loss and AcrAB-TolC overexpression (ΔramR) strains (Table 6); format: cell-based, Klebsiella pneumoniae
Procedure, shortened: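 Etest MICs against K. pneumoniae NVT1001 and its ΔompK35/36 and/or ΔramR mutants, rounded up to the next two-fold value. For NVT1001 carrying pACYC177-blaOXA-48, ceftazidime and cefotaxime MICs by CLSI broth microdilution, interpreted with CLSI 2017 breakpoints.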

C[C@@H](O)[C@H]1C(=O)N2C(C(=O)O)=C(SCCN=CN)C[C@H]12 [Imipenem]
MIC ([1]; ΔramRΔompK35/36::ompK35/36 revertant): 0.25 µg/mL
MIC ([1]; ΔramRΔompK35/36::ompK35 revertant): 0.25 µg/mL
MIC ([1]; ΔramRΔompK35/36::ompK36 revertant): 0.25 µg/mL
MIC ([1]; ΔramRΔompK35/36::ramR revertant): 0.5 µg/mL
MIC ([1]; ΔramRΔompK35/36::ramR::ompK35/36 revertant): 0.5 µg/mL
MIC ([1]; ΔramRΔompK35/36::ramR::ompK35 revertant): 0.25 µg/mL
MIC ([1]; ΔramRΔompK35/36::ramR::ompK36 revertant): 0.25 µg/mL
MIC ([1]; ΔramRΔompK35/36 mutant): 0.5 µg/mL
MIC ([2]; IMP-8 on pACYC177, WT (NVT1001), read-out: MIC): 4 µg/mL
MIC ([2]; IMP-8 on pACYC177, Δ35 (ΔompK35 mutant)): 4 µg/mL
MIC ([2]; IMP-8 on pACYC177, Δ35/36 (ΔompK35/36 mutant)): > 32 µg/mL
MIC ([2]; IMP-8 on pACYC177, Δ36 (ΔompK36 mutant)): 8 µg/mL
MIC ([2]; IMP-8 on pACYC177, ΔramR mutant): 4 µg/mL
MIC ([2]; IMP-8 on pACYC177, ΔramRΔ35 (ΔramRΔompK35 mutant)): 4 µg/mL
MIC ([2]; IMP-8 on pACYC177, ΔramRΔ35/36 (ΔramRΔompK35/36 mutant)): > 32 µg/mL
MIC ([2]; IMP-8 on pACYC177, ΔramRΔ36 (ΔramRΔompK36 mutant)): > 32 µg/mL
MIC ([2]; KPC-2 on pACYC177, WT (NVT1001), read-out: MIC): > 32 µg/mL
MIC ([2]; KPC-2 on pACYC177, Δ35 (ΔompK35 mutant)): > 32 µg/mL
MIC ([2]; KPC-2 on pACYC177, Δ35/36 (ΔompK35/36 mutant)): > 32 µg/mL
MIC ([2]; KPC-2 on pACYC177, Δ36 (ΔompK36 mutant)): > 32 µg/mL
MIC ([2]; KPC-2 on pACYC177, ΔramR mutant): > 32 µg/mL
MIC ([2]; KPC-2 on pACYC177, ΔramRΔ35 (ΔramRΔompK35 mutant)): > 32 µg/mL
MIC ([2]; KPC-2 on pACYC177, ΔramRΔ35/36 (ΔramRΔompK35/36 mutant)): > 32 µg/mL
MIC ([2]; KPC-2 on pACYC177, ΔramRΔ36 (ΔramRΔompK36 mutant)): > 32 µg/mL
MIC ([2]; KPC-3 on pACYC177, WT (NVT1001), read-out: MIC): 32 µg/mL
MIC ([2]; KPC-3 on pACYC177, Δ35 (ΔompK35 mutant)): > 32 µg/mL
MIC ([2]; KPC-3 on pACYC177, Δ35/36 (ΔompK35/36 mutant)): > 32 µg/mL
MIC ([2]; KPC-3 on pACYC177, Δ36 (ΔompK36 mutant)): > 32 µg/mL
MIC ([2]; KPC-3 on pACYC177, ΔramR mutant): 32 µg/mL
MIC ([2]; KPC-3 on pACYC177, ΔramRΔ35 (ΔramRΔompK35 mutant)): 32 µg/mL
MIC ([2]; KPC-3 on pACYC177, ΔramRΔ35/36 (ΔramRΔompK35/36 mutant)): > 32 µg/mL
MIC ([2]; KPC-3 on pACYC177, ΔramRΔ36 (ΔramRΔompK36 mutant)): > 32 µg/mL
MIC ([2]; NDM-1 on pACYC177, WT (NVT1001), read-out: MIC): > 32 µg/mL
MIC ([2]; NDM-1 on pACYC177, Δ35 (ΔompK35 mutant)): > 32 µg/mL
MIC ([2]; NDM-1 on pACYC177, Δ35/36 (ΔompK35/36 mutant)): > 32 µg/mL
MIC ([2]; NDM-1 on pACYC177, Δ36 (ΔompK36 mutant)): > 32 µg/mL
MIC ([2]; NDM-1 on pACYC177, ΔramR mutant): > 32 µg/mL
MIC ([2]; NDM-1 on pACYC177, ΔramRΔ35 (ΔramRΔompK35 mutant)): > 32 µg/mL
MIC ([2]; NDM-1 on pACYC177, ΔramRΔ35/36 (ΔramRΔompK35/36 mutant)): > 32 µg/mL
MIC ([2]; NDM-1 on pACYC177, ΔramRΔ36 (ΔramRΔompK36 mutant)): > 32 µg/mL
MIC ([2]; OXA-48 on pACYC177, WT (NVT1001), read-out: MIC): 4 µg/mL
MIC ([2]; OXA-48 on pACYC177, Δ35 (ΔompK35 mutant)): 4 µg/mL
MIC ([2]; OXA-48 on pACYC177, Δ35/36 (ΔompK35/36 mutant)): > 32 µg/mL
MIC ([2]; OXA-48 on pACYC177, Δ36 (ΔompK36 mutant)): 8 µg/mL
MIC ([2]; OXA-48 on pACYC177, ΔramR mutant): 4 µg/mL
MIC ([2]; OXA-48 on pACYC177, ΔramRΔ35 (ΔramRΔompK35 mutant)): 4 µg/mL
MIC ([2]; OXA-48 on pACYC177, ΔramRΔ35/36 (ΔramRΔompK35/36 mutant)): > 32 µg/mL
MIC ([2]; OXA-48 on pACYC177, ΔramRΔ36 (ΔramRΔompK36 mutant)): > 32 µg/mL
MIC ([2]; VIM-1 on pACYC177, WT (NVT1001), read-out: MIC): 16 µg/mL
MIC ([2]; VIM-1 on pACYC177, Δ35 (ΔompK35 mutant)): 32 µg/mL
MIC ([2]; VIM-1 on pACYC177, Δ35/36 (ΔompK35/36 mutant)): > 32 µg/mL
MIC ([2]; VIM-1 on pACYC177, Δ36 (ΔompK36 mutant)): > 32 µg/mL
MIC ([2]; VIM-1 on pACYC177, ΔramR mutant): 16 µg/mL
MIC ([2]; VIM-1 on pACYC177, ΔramRΔ35 (ΔramRΔompK35 mutant)): 16 µg/mL
MIC ([2]; VIM-1 on pACYC177, ΔramRΔ35/36 (ΔramRΔompK35/36 mutant)): > 32 µg/mL
MIC ([2]; VIM-1 on pACYC177, ΔramRΔ36 (ΔramRΔompK36 mutant)): > 32 µg/mL
MIC ([2]; no supplemental plasmid, WT (NVT1001), read-out: MIC): 0.5 µg/mL
MIC ([2]; no supplemental plasmid, Δ35 (ΔompK35 mutant)): 0.5 µg/mL
MIC ([2]; no supplemental plasmid, Δ35/36 (ΔompK35/36 mutant)): 0.5 µg/mL
MIC ([2]; no supplemental plasmid, Δ36 (ΔompK36 mutant)): 0.5 µg/mL
MIC ([2]; no supplemental plasmid, ΔramR mutant): 0.25 µg/mL
MIC ([2]; no supplemental plasmid, ΔramRΔ35 (ΔramRΔompK35 mutant)): 0.25 µg/mL
MIC ([2]; no supplemental plasmid, ΔramRΔ35/36 (ΔramRΔompK35/36 mutant)): 0.5 µg/mL
MIC ([2]; no supplemental plasmid, ΔramRΔ36 (ΔramRΔompK36 mutant)): 0.5 µg/mL
MIC ([3]; WT, NVT1001, read-out: MIC): 0.5 µg/mL (≈ 1.67 µM)
MIC ([3]; Δ35, ΔompK35 mutant): 0.5 µg/mL (≈ 1.67 µM)
MIC ([3]; Δ35/36, ΔompK35/36 mutant): 0.5 µg/mL (≈ 1.67 µM)
MIC ([3]; Δ36, ΔompK36 mutant): 0.5 µg/mL (≈ 1.67 µM)
MIC ([3]; ΔramR mutant): 0.25 µg/mL (≈ 0.835 µM)
MIC ([3]; ΔramRΔ35, ΔramRΔompK35 mutant): 0.25 µg/mL (≈ 0.835 µM)
MIC ([3]; ΔramRΔ35/36, ΔramRΔompK35/36 mutant): 0.5 µg/mL (≈ 1.67 µM)
MIC ([3]; ΔramRΔ36, ΔramRΔompK36 mutant): 0.5 µg/mL (≈ 1.67 µM)
